# ± gives the standard deviation of the averaged measurements.
# Tests used:
# SALINOMYCIN = compound: CC[C@@H](C(=O)[C@@H](C)[C@@H](O)[C@H](C)[C@@H]1O[C@@H]([C@@H](CC)C(=O)O)CC[C@@H]1C)[C@H]1O[C@]2(C=C[C@@H](O)[C@]3(CC[C@@](C)([C@H]4CC[C@](O)(CC)[C@H](C)O4)O3)O2)[C@H](C)C[C@@H]1C [SALINOMYCIN]; assay: surviving fraction relative to DMSO-only wells; higher = less growth inhibition; conditions: exposure time: 5 days
# In short: (§1)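 Tumour cell lines were grown to log phase and seeded at 250–500 cells per well in 384-well plates. They were exposed continuously to inhibitors at 0.5, 1, 5, 10, 50, 100, 500 and 1000 nM for five days, beginning 24 hours after seeding. Surviving fraction is CellTiter-Glo luminescence normalised to the median of DMSO-only wells.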
# VISMODEGIB = compound: CS(=O)(=O)c1ccc(C(=O)Nc2ccc(Cl)c(-c3ccccn3)c2)c(Cl)c1 [VISMODEGIB]; assay: as above; conditions: exposure time: 5 days
# In short: as §1
Test System,surviving fraction (SALINOMYCIN; 0.5 nM),surviving fraction (SALINOMYCIN; 1 nM),surviving fraction (SALINOMYCIN; 5 nM),surviving fraction (SALINOMYCIN; 10 nM),surviving fraction (SALINOMYCIN; 50 nM),surviving fraction (SALINOMYCIN; 100 nM),surviving fraction (SALINOMYCIN; 500 nM),surviving fraction (SALINOMYCIN; 1000 nM),surviving fraction (VISMODEGIB; 0.5 nM),surviving fraction (VISMODEGIB; 1 nM),surviving fraction (VISMODEGIB; 5 nM),surviving fraction (VISMODEGIB; 10 nM),surviving fraction (VISMODEGIB; 50 nM),surviving fraction (VISMODEGIB; 100 nM),surviving fraction (VISMODEGIB; 500 nM),surviving fraction (VISMODEGIB; 1000 nM)
KPD BONE,0.931 ± 0.046,0.942 ± 0.013,1 ± 0.064,0.979 ± 0.018,0.93 ± 0.032,0.7467 ± 0.005,0.235 ± 0.015,0.128 ± 0.016,0.899 ± 0.045,0.946 ± 0.088,1.05 ± 0.078,1.01 ± 0.017,0.956 ± 0.012,1.05 ± 0.073,0.98 ± 0.039,0.933 ± 0.07
MDAMB361 BREAST,0.826 ± 0.086,0.866 ± 0.041,0.877 ± 0.0093,0.845 ± 0.058,0.909 ± 0.047,0.845 ± 0.035,0.753 ± 0.014,0.638 ± 0.0085,0.83 ± 0.021,0.798 ± 0.039,0.829 ± 0.043,0.784 ± 0.051,0.571 ± 0.019,0.612 ± 0.093,0.583 ± 0.049,0.598 ± 0.032
JURKAT HAEMATOPOIETIC AND LYMPHOID TISSUE,1.08 ± 0.011,1.09 ± 0.028,1.03 ± 0.02,1.04 ± 0.042,0.815 ± 0.024,0.673 ± 0.018,0.23 ± 0.005,0.101 ± 0.0053,1.09 ± 0.0025,1.09 ± 0.017,1.06 ± 0.017,1.1 ± 0.019,0.99 ± 0.016,1.04 ± 0.026,1.02 ± 0.032,1.05 ± 0.017
SCC003 HEADNECK,0.904 ± 0.056,0.863 ± 0.098,0.946 ± 0.042,0.973 ± 0.059,1.04 ± 0.11,0.897 ± 0.05,0.49 ± 0.021,0.267 ± 0.016,0.956 ± 0.073,0.988 ± 0.029,1.05 ± 0.17,1.06 ± 0.11,0.918 ± 0.082,1.05 ± 0.14,0.852 ± 0.08,0.98 ± 0.056
HCC78 LUNG,0.833 ± 0.18,0.693 ± 0.063,0.855 ± 0.17,0.948 ± 0.071,0.72 ± 0.095,0.697 ± 0.24,0.228 ± 0.014,0.143 ± 0.022,1.08 ± 0.11,0.941 ± 0.1,0.982 ± 0.14,1.11 ± 0.14,1.1 ± 0.21,1.32 ± 0.2,1.04 ± 0.13,0.934 ± 0.19
MFM223 BREAST,1.08 ± 0.091,1.05 ± 0.024,1.03 ± 0.03,1.01 ± 0.036,0.979 ± 0.051,0.461 ± 0.03,0.0642 ± 0.0082,0.0428 ± 0.0051,1.07 ± 0.11,1.1 ± 0.021,1.05 ± 0.058,1.14 ± 0.035,0.841 ± 0.08,0.875 ± 0.081,0.901 ± 0.068,0.853 ± 0.063
HCC202 BREAST,1.39 ± 0.31,0.95 ± 0.16,0.918 ± 0.26,1.13 ± 0.17,1.03 ± 0.18,0.737 ± 0.16,0.189 ± 0.037,0.109 ± 0.0082,1.1 ± 0.14,0.842 ± 0.13,1.06 ± 0.2,1.04 ± 0.25,0.945 ± 0.46,0.785 ± 0.2,0.908 ± 0.14,0.732 ± 0.14
HCC1395 BREAST,1.06 ± 0.1,1.26 ± 0.26,1.17 ± 0.11,1.05 ± 0.15,1.16 ± 0.13,1.11 ± 0.041,0.843 ± 0.13,0.751 ± 0.16,0.717 ± 0.018,0.758 ± 0.12,0.818 ± 0.031,0.83 ± 0.12,0.681 ± 0.14,0.695 ± 0.055,0.676 ± 0.052,0.772 ± 0.076
BT20 BREAST,0.964 ± 0.16,1.05 ± 0.14,1.12 ± 0.076,1.3 ± 0.25,1.32 ± 0.19,1.19 ± 0.25,1.22 ± 0.31,1.13 ± 0.3,1.08 ± 0.13,0.977 ± 0.039,1.01 ± 0.062,1.02 ± 0.048,0.964 ± 0.086,0.901 ± 0.058,0.898 ± 0.032,0.907 ± 0.11
U2OS BONE,1.01 ± 0.022,1.02 ± 0.04,1.01 ± 0.016,1.015 ± 0.0081,1.06 ± 0.019,1.04 ± 0.029,0.783 ± 0.024,0.538 ± 0.035,1.04 ± 0.019,1.07 ± 0.042,1.09 ± 0.012,1.05 ± 0.013,1.02 ± 0.065,1.04 ± 0.046,1.05 ± 0.028,1.07 ± 0.024
SG31 HEADNECK,1.08 ± 0.15,1.12 ± 0.036,1.07 ± 0.089,0.888 ± 0.097,0.924 ± 0.048,0.863 ± 0.093,0.413 ± 0.033,0.317 ± 0.047,0.965 ± 0.17,1.01 ± 0.2,0.946 ± 0.088,1.11 ± 0.22,0.783 ± 0.031,0.94 ± 0.054,0.834 ± 0.049,0.826 ± 0.091
OS25HAL BONE,0.952 ± 0.016,0.943 ± 0.012,0.964 ± 0.02,0.932 ± 0.02,0.979 ± 0.031,0.792 ± 0.017,0.122 ± 0.014,0.0527 ± 0.0015,1 ± 0.014,1 ± 0.033,0.9983 ± 0.009,0.998 ± 0.017,0.967 ± 0.019,0.98 ± 0.005,1.01 ± 0.048,1.02 ± 0.054
SCC36 HEADNECK,0.984 ± 0.07,0.972 ± 0.12,1.094 ± 0.0015,0.973 ± 0.039,1.11 ± 0.02,0.925 ± 0.051,0.149 ± 0.011,0.08 ± 0.0078,0.88 ± 0.031,0.979 ± 0.033,1.07 ± 0.048,1.05 ± 0.051,0.739 ± 0.094,0.779 ± 0.085,0.731 ± 0.071,0.721 ± 0.076
SUM44 BREAST,0.967 ± 0.033,0.959 ± 0.021,0.995 ± 0.042,0.992 ± 0.017,1.01 ± 0.033,1.02 ± 0.028,0.852 ± 0.031,0.748 ± 0.037,0.945 ± 0.033,0.951 ± 0.048,0.994 ± 0.017,0.934 ± 0.02,0.929 ± 0.051,0.9713 ± 0.0095,0.924 ± 0.14,0.876 ± 0.055
SG32 HEADNECK,0.944 ± 0.068,1.13 ± 0.41,0.951 ± 0.13,0.729 ± 0.054,0.921 ± 0.13,0.636 ± 0.016,0.133 ± 0.01,0.054 ± 0.0044,1.01 ± 0.031,1.08 ± 0.11,1.07 ± 0.17,1.58 ± 0.69,0.857 ± 0.06,1.08 ± 0.26,0.844 ± 0.14,0.873 ± 0.075
SUM159 BREAST,0.979 ± 0.033,0.92 ± 0.13,0.865 ± 0.25,0.934 ± 0.12,0.648 ± 0.14,0.475 ± 0.18,0.32 ± 0.088,0.268 ± 0.092,1.14 ± 0.23,1.12 ± 0.17,1.14 ± 0.22,1.15 ± 0.22,1.06 ± 0.12,1.08 ± 0.084,1.12 ± 0.2,1.11 ± 0.14
HCC1806 BREAST,0.957 ± 0.25,0.695 ± 0.59,0.819 ± 0.58,0.709 ± 0.61,0.965 ± 0.17,0.873 ± 0.04,0.33 ± 0.056,0.223 ± 0.0067,0.902 ± 0.088,1.03 ± 0.043,1.18 ± 0.1,1.05 ± 0.083,0.932 ± 0.093,0.98 ± 0.1,0.896 ± 0.11,0.904 ± 0.12
NY BONE,0.929 ± 0.024,0.9297 ± 0.0087,0.965 ± 0.018,0.928 ± 0.021,0.851 ± 0.028,0.654 ± 0.0095,0.241 ± 0.009,0.136 ± 0.0072,0.955 ± 0.018,0.968 ± 0.033,0.977 ± 0.018,1.06 ± 0.027,0.993 ± 0.025,0.996 ± 0.016,0.932 ± 0.058,1.01 ± 0.041
RDES SOFT TISSUE,1.12 ± 0.12,1.21 ± 0.03,1.17 ± 0.2,1.12 ± 0.13,0.438 ± 0.22,0.0573 ± 0.0031,0.399 ± 0.021,0.218 ± 0.014,1.06 ± 0.088,1.1 ± 0.047,1.11 ± 0.22,1.16 ± 0.034,0.677 ± 0.3,0.83 ± 0.34,0.761 ± 0.18,0.717 ± 0.32
SNU475 LIVER,0.974 ± 0.027,0.86 ± 0.032,0.952 ± 0.029,0.423 ± 0.0047,1.04 ± 0.036,0.871 ± 0.033,0.46 ± 0.046,0.31 ± 0.018,0.959 ± 0.046,0.946 ± 0.057,0.967 ± 0.019,0.982 ± 0.0087,0.884 ± 0.032,0.89 ± 0.03,0.869 ± 0.024,0.902 ± 0.012
